The values that follow are results of earlier work, collected in article PMC8069832, “New Amides and Phosphoramidates Containing Selenium: Studies on Their Cytotoxicity and Antioxidant Activities in Breast Cancer” (Antioxidants, 2021).

What all share (set-up): method as in earlier work
One data set deals with MCF-7. To be noted: DTP database of the NCI; cited from earlier work.
The next data set deals with CCRF-CEM. The following applies: DTP database of the NCI; cited from earlier work.
In another data set the test system is HT-29. To be noted: DTP database of the NCI; cited from earlier work.
The next data set has as its system HTB-54. To be noted: DTP database of the NCI, cited from earlier work.
For a further data set, the system named is PC-3. The following applies: DTP database of the NCI; cited from earlier work.

Regarding `N.N.[Cl][Pt][Cl]` [Cp, cisplatin], in the data set on MCF-7, the concentration for 50% growth inhibition (GI50) is 3.2 µM and the “TGI MCF-7” value is given as greater than 100 µM. In the data set on CCRF-CEM, the GI50 is 1000 nM and the “TGI CCRF-CEM” value is 79.6 µM. In the data set on HT-29, the GI50 was 7.9 µM and the “TGI HT-29” value was greater than 100 µM. Also, the “TGI HTB54” value in the data set with HTB-54 is 32.7 µM. In the data set with HTB-54 (read-out: GI50 HTB54), the concentration for 50% growth inhibition (GI50) is 9.6 µM. Besides, in the data set with PC-3, the GI50 is 5 µM and the “TGI PC-3” value is listed as 50.1 µM.
